Legend:
[1] = molecular target: T1, trehalase derived from pig kidney (Sus scrofa, UniProt I3LIR5); assay: Hydrolysis by trehalase; format: biochemical; conditions: one unit trehalase, pH 5.7, 37° C., 18 hours; HPLC
T1 construct: purchased Sigma Chemical Company, St. Louis, USA; host or cells: pig kidney
T1 sequence (I3LIR5 24-583): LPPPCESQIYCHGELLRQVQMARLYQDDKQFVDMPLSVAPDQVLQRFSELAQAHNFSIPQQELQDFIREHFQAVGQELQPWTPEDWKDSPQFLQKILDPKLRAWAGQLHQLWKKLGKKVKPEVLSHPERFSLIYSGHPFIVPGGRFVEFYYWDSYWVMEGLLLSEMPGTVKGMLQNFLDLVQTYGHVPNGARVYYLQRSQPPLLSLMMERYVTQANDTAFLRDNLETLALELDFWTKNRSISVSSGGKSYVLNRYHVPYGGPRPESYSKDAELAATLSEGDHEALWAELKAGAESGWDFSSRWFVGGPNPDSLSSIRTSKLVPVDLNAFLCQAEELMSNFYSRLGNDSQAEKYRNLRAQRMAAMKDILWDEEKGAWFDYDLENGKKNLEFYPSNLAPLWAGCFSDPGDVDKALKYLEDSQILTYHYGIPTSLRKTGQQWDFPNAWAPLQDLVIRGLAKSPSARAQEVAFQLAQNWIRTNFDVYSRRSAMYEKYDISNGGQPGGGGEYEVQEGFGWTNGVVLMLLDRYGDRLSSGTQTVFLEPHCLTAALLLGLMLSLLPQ

[2] = Hygroscopicity of product; format: physicochemical; conditions: powdery product

| Compound | Hydrolysis by trehalase [1] | Hygroscopicity [2] |
| --- | --- | --- |
| OC[C@H]1O[C@H](O[C@H]2O[C@H](CO)[C@@H](O)[C@H](O)[C@H]2O)[C@H](O)[C@@H](O)[C@@H]1O [trehalose, α, α-trehalose] | hydrolyzed by trehalase into glucose molecules | – |
| OC[C@H]1O[C@H](O[C@H]2O[C@H](CO)[C@@H](O)[C@H](O)[C@H]2O)[C@H](O)[C@@H](O)[C@@H]1O [Example A-6, trehalose] | – | no substantial hygroscopicity |

— patent publication US5922580A, “Non-reducing saccharide-forming enzyme, its preparation and uses” (priority 1992, dated 1999)
